# Data published in US8129533B2, “Method for production of quinolone-containing lyophilized preparation” (Dalichi Sankyo Company, Limited, priority 2005, dated 2012).
# Experiments:
# [1] = Reconstitution time of lyophilized preparation (with vs without annealing step); assay type: physicochemical; conditions: for reconstitution time of lyophilized preparation: lyophilized preparation (20 mg/mL, pH-adjusting agent only) prepared with an annealing step vs without, water for injection 10 mL, moderate shaking, FIG. 8
# Source text: After a drug solution had been prepared in a manner similar to that described above, the solution was charged into a container and frozen under the conditions shown in Table 2, and then was lyophilized in a manner similar to that described above, followed by measurement of the time required for reconstitution (hereinafter the time may be referred to as a “reconstitution time”). The state observed about 30 seconds after injection of a liquid for reconstitution is shown in FIG. 2 (method without annealing step) or FIG. 3 (method with an annealing step).
# Lyophilization was performed under varied annealing conditions (e.g., temperature and maintenance time for an annealing step) as shown in Table 3. […] Reconstitution time was measured through the following procedure: after completion of lyophilization, water for injection was added to a vial in an amount equal to that of the liquid charged into the vial, followed by moderate shaking, and the time required for complete dissolution of the content of the vial was measured.
# Water for injection (10 mL) was added to a vial, followed by moderate shaking, and the time required for complete dissolution of the content of the vial was measured.
# [2] = test system: drug-resistant bacteria; conditions: cited from earlier work
# [3] = DSC of frozen product of compound-containing aqueous solution (glass transition temperature); assay type: physicochemical; conditions: frozen product of Table 1 formulation
# Source text: The temperature of the annealing step may be determined on the basis of the glass transition temperature of the frozen product of the compound (1)-containing aqueous solution obtained through the freezing step. Specifically, the temperature of the frozen product is elevated to a level equal to or higher than the glass transition temperature thereof, and then maintained for a predetermined period of time. The glass transition temperature of the frozen product may be determined through, for example, DSC of the frozen product, and this DSC may be performed according to a generally employed method. The glass transition temperature of frozen products is varied in accordance with, for example, the compositional proportions of ingredients of starting solutions for the products. Therefore, different frozen products are subjected to DSC for determination of the glass transition temperature thereof.
# For example, in the DSC chart of the frozen product containing compound (I) and pH-adjusting agents having a formulation shown in Table 1, the peak corresponding to the glass transition temperature of the frozen product rises at about −14.0° C. (FIG. 5). […] Therefore, when the annealing step is performed at a temperature equal to or higher than this temperature, the annealing effect is expected to be attained.
# [4] = test system: drug-resistant Gram-positive bacteria such as methicillin-resistant staphylococci, penicillin-resistant pneumococci, and vancomycin-resistant enterococci; conditions: cited from earlier work
compound,measurement,setting,value
"N[C@@H]1CN(c2c(F)cc3c(=O)c(C(=O)O)cn([C@@H]4C[C@@H]4F)c3c2Cl)CC12CC2 [sitafloxacin, (−)-7-[(7S)-7-amino-5-azaspiro[2.4]heptan-5-yl]-8-chloro-6-fluoro-1-[(1R,2S)-2-fluoro-1-cyclopropyl]-1,4-dihydro-4-oxo-3-quinolinecarboxylic acid sesquihydrate]",reconstitution time of lyophilized preparation,[1],reduced reconstitution time
"C[C@H]1COc2c(N3CCN(C)CC3)c(F)cc3c(=O)c(C(=O)O)cn1c23 [levofloxacin, (−)-(S)-9-fluoro-2,3-dihydro-3-methyl-10-(4-methyl-1-piperazinyl)-7-oxo-7H-pyrido[1,2,3-de][1,4]benzoxazine-6-carboxylic acid hemihydrate]",reconstitution time of lyophilized preparation,[1],reduced reconstitution time
"COc1c(N2CC3(CC3)[C@](C)(N)C2)c(F)cc2c(=O)c(C(=O)O)cn([C@@H]3C[C@@H]3F)c12 [compound (II), (+)-7-[(7S)-7-amino-7-methyl-5-azaspiro[2.4]heptan-5-yl]-6-fluoro-1-[(1R,2S)-2-fluoro-1-cyclopropyl]-1,4-dihydro-8-methoxy-4-oxo-3-quinolinecarboxylic acid hemihydrate]",antibacterial activity,[2],excellent antibacterial activity
same,reconstitution time of lyophilized preparation,[1],reduced reconstitution time
"CC1COc2c(N3CCN(C)CC3)c(F)cc3c(=O)c(C(=O)O)cn1c23 (racemic) [ofloxacin, (±)-9-fluoro-2,3-dihydro-3-methyl-10-(4-methyl-1-piperazinyl)-7-oxo-7H-pyrido[1,2,3-de][1,4]benzoxazine-6-carboxylic acid]",reconstitution time of lyophilized preparation,[1],reduced reconstitution time
"COc1c(N2CC[C@@H](C3(N)CC3)C2)ccc2c(=O)c(C(=O)O)cn([C@@H]3C[C@@H]3F)c12 [compound (I), 7-[3-(R)-(1-aminocyclopropyl)pyrrolidin-1-yl]-1-[2-(S)-fluoro-1-(R)-cyclopropyl]-1,4-dihydro-8-methoxy-4-oxoquinoline-3-carboxylic acid]",temperature at which the glass transition peak starts (DSC),[3],about −17 °C
same,antibacterial activity,[4],high antibacterial activity
same,reconstituting property of lyophilized cake,"[1]; Table 1 formulation, frozen product maintained between glass transition temperature and a temperature at which it does not thaw",improved reconstituting property
